pEC50, pIC50: −log10 of the molar value. Like-named read-outs stand apart in the source and are kept apart here.
Tests used:
[1] = test system: Asexual parasites of P. falciparum strain 3D7; assay: SYBR Green viability assay on asexual parasites; format: cell-based, Plasmodium falciparum; conditions: Plasmodium falciparum, 3D7, Table 7; read-out: Activity against asexual parasites EC50
[2] = test system: P. falciparum strain 3D7 gametocytes; assay: alamarBlue gametocyte viability assay, strain 3D7; conditions: for pEC50: 3D7, read-out: Gametocytocidal activity EC50, Table 7
HepG2 cells = assay: Cytotoxicity in mammalian HepG2 cell line; conditions: for % Max response: HepG2; for IC50 (μM) in HepG2 cells / IC50 (μM) in HepG2: Inactive = no significant activity at highest tested concentration (46 μM)
[3] = Plasmodium falciparum, 3D7, read-out: 3D7-IC50
[4] = Homo sapiens, HepG2, read-out: IC50 (μM) in HepG2 cells
[5] = read-out: Gametocyte IC50, mean of at least 3 independent experiments, P. falciparum 3D7 gametocyte
[6] = Plasmodium falciparum, 3D7, read-out: Gametocyte IC50
[7] = Plasmodium falciparum, 3D7, read-out: IC50 against gametocytes

SMILES	pEC50 [1]	pEC50 ([2]; Plasmodium falciparum)	% Max response (HepG2 cells; Table 4) [%]	other results
O=c1[nH]c2cnc3ccc(-c4ccc(O)cc4)cc3c2n1-c1cccc(C(F)(F)F)c1	6.40	5.85		
Nc1cccc(-c2ccc3ncc4[nH]c(=O)n(-c5cccc(C(F)(F)F)c5)c4c3c2)c1	6.86	6.27		
O=c1[nH]c2cnc3ccc(-c4ccncc4)cc3c2n1-c1cccc(C(F)(F)F)c1	6.68	5.91		
O=c1[nH]c2cnc3ccc(-c4ccc5[nH]cnc5c4)cc3c2n1-c1cccc(C(F)(F)F)c1	7.05	6.27		
CS(=O)(=O)c1ccc(-c2ccc3ncc4[nH]c(=O)n(-c5cccc(C(F)(F)F)c5)c4c3c2)cc1	6.21	5.69		
O=c1[nH]c2cnc3ccc(-c4cnc5ccccc5c4)cc3c2n1-c1cccc(C(F)(F)F)c1	5.24	3.67		
Nc1ncc(-c2ccc3ncc4[nH]c(=O)n(-c5cccc(C(F)(F)F)c5)c4c3c2)cn1	7.24	6.61		
Cn1c(=O)n(-c2cccc(C(F)(F)F)c2)c2c3cc(-c4cccc(N)c4)ccc3ncc21	7.80	7.16		
O=c1[nH]c2cnc3ccc(-c4cccnc4)cc3c2n1-c1cccc(C(F)(F)F)c1	5.85	5.25		
NC(=O)c1ccc(-c2ccc3ncc4[nH]c(=O)n(-c5cccc(C(F)(F)F)c5)c4c3c2)cc1	7.35	6.64		
Cn1c(=O)n(-c2cccc(C(F)(F)F)c2)c2c3cc(-c4ccc(N)cc4)ccc3ncc21	7.80	7.16		
Cn1c(=O)n(-c2cccc(C(F)(F)F)c2)c2c3cc(-c4ccc(C(N)=O)cc4)ccc3ncc21	7.70	6.96		
Cn1c(=O)n(-c2cccc(C(F)(F)F)c2)c2c3cc(-c4ccc(C(N)=O)nc4)ccc3ncc21	8.10	7.37		
Cn1c(=O)n(-c2cccc(C(F)(F)F)c2)c2c3cc(-c4cnc(N)nc4)ccc3ncc21	8.15	7.51		
Nc1ccc(-c2ccc3ncc4[nH]c(=O)n(-c5cccc(C(F)(F)F)c5)c4c3c2)cn1	6.98	7.06		
COc1cccc2c1C(=O)c1c(O)c3c(c(O)c1C2=O)C[C@@](O)(C(=O)CO)C[C@@H]3O[C@H]1C[C@H](N)[C@H](O)[C@H](C)O1 [Adriamycin]			−35	IC50 (μM) in HepG2 cells (HepG2 cells; Table 4): Inactive; pIC50 [2, 3]: 6.28
CN(C)C/C=C/C(=O)Nc1cc2c(Nc3ccc(F)c(Cl)c3)ncnc2cc1O[C@H]1CCOC1 [Afatinib]			−100	IC50 (HepG2 cells; [4]): 18.7 µM; pIC50 [2, 3]: 6.03
CO[C@H]1/C=C\C=C(/C)C(=O)NC2=CC(=O)C(NCCN(C)C)=C(C[C@@H](C)C[C@H](OC)[C@H](O)[C@@H](C)/C=C(\C)[C@@H]1OC(N)=O)C2=O [Alvespimycin]			−94	IC50 (HepG2 cells; [4]): 0.118 µM
CO[C@H]1O[C@@H]2O[C@@]3(C)CC[C@H]4[C@H](C)CC[C@@H]([C@H]1C)[C@@]24OO3 [Artemether]			7	IC50 (μM) in HepG2 cells (HepG2 cells; Table 4): Inactive
C[C@@H]1CC[C@H]2[C@@H](C)C(=O)O[C@@H]3O[C@@]4(C)CC[C@@H]1[C@]32OO4 [Artemisinin, artemisinin]			18	IC50 (μM) in HepG2 cells (HepG2 cells; Table 4): Inactive; pIC50 [2, 3]: 7.00

SMILES	pEC50 [1]	pEC50 ([2]; Plasmodium falciparum)	% Max response (HepG2 cells; Table 4) [%]	other results
C[C@H]1[C@@H](O)O[C@@H]2O[C@@]3(C)CC[C@H]4[C@H](C)CC[C@@H]1[C@@]24OO3 [Artenimol (DHA)]			20	% Max response (HepG2 cells; Table 2): 20%; IC50 (μM) in HepG2 (HepG2 cells; Table 2): Inactive; IC50 (μM) in HepG2 cells (HepG2 cells; Table 4): Inactive; pIC50 [2, 5]: 7.11
C[C@H]1[C@H](OC(=O)CCC(=O)O)O[C@@H]2O[C@@]3(C)CC[C@H]4[C@H](C)CC[C@@H]1[C@@]24OO3 [Artesunate]			18	IC50 (μM) in HepG2 cells (HepG2 cells; Table 4): Inactive
CC(C)C[C@H](NC(=O)[C@H](Cc1ccccc1)NC(=O)c1cnccn1)B(O)O [Bortezomib]			−82	IC50 (HepG2 cells; [4]): 0.148 µM; pIC50 [2, 3]: 7.00
CC(C)C[C@H](NC(=O)[C@H](CCc1ccccc1)NC(=O)CN1CCOCC1)C(=O)N[C@@H](Cc1ccccc1)C(=O)N[C@@H](CC(C)C)C(=O)[C@@]1(C)CO1 [Carfilzomib]			−79	IC50 (HepG2 cells; [4]): 1.18 µM
S=C(SSC(=S)N1CCCCC1)N1CCCCC1 [Dicyclopentamethylene-thiuram disulfide, reference compound]				pIC50 [2, 6]: 6.56
S=C(SSC(=S)N1CCCCC1)N1CCCCC1 [Dicyclopentamethylenethiram disulfide]			0	% Max response (HepG2 cells; Table 2): 0%; IC50 (μM) in HepG2 (HepG2 cells; Table 2): Inactive; IC50 (μM) in HepG2 cells (HepG2 cells; Table 4): Inactive
c1ccc2c(c1)[I+]c1ccccc1-2 [Diphenyleneiodonium]				pIC50 [2, 3]: 7.00
[O-][n+]1ccccc1SSc1cccc[n+]1[O-] [Dipyrithione]			−93	IC50 (HepG2 cells; [4]): 10.8 µM; pIC50 [2, 3]: 6.70
CN(NC(=O)CC(=O)NN(C)C(=S)c1ccccc1)C(=S)c1ccccc1 [Elesclomol, elesclomol, reference compound]				pIC50 [2, 6]: 8.22
CO[C@@H]1[C@@H](OC)[C@H](C)[C@@](O)(CC(=O)O)O[C@H]1[C@H](C)[C@H]1O[C@@]2(CC[C@@](C)([C@H]3CC[C@@](C)([C@@H]4O[C@@H]([C@H]5O[C@](C)(O)[C@H](C)C[C@@H]5C)C[C@@H]4O[C@@H]4C[C@H](OC)[C@@H](OC)[C@H](C)O4)O3)O2)C[C@H](O)[C@H]1C [Maduramicin]				Emax (HepG2 cells; Homo sapiens, HepG2, read-out: % Max response): -42%; IC50 (HepG2 cells; Homo sapiens, HepG2, read-out: IC50 (μM) in HepG2): 37.2 µM; IC50 (HepG2 cells; [4]): 37.2 µM; pIC50 [2, 6]: 7.33; pIC50 [2, 7]: 7.30 to 8.52
OC(c1cc(C(F)(F)F)nc2c(C(F)(F)F)cccc12)C1CCCCN1 (stereo not drawn) [Mefloquine, mefloquine]			−97	IC50 (HepG2 cells; [4]): 29.6 µM
CCNC(=O)c1noc(-c2cc(C(C)C)c(O)cc2O)c1-c1ccc(CN2CCOCC2)cc1 [NVP-AUY922]			−88	IC50 (HepG2 cells; [4]): 0.148 µM; pIC50 [2, 7]: 7.30 to 8.52
CC[C@@H](C(=O)O)[C@@H]1O[C@@H]([C@@H](C)[C@H](O)[C@H](C)C(=O)[C@H](CC)[C@H]2O[C@]3(C=C[C@@H](O)[C@]4(CC[C@@](C)([C@H]5CC[C@](O)(CC)[C@H](C)O5)O4)O3)[C@H](C)C[C@@H]2C)[C@@H](C)C[C@@H]1C [Narasin]			−98	IC50 (HepG2 cells; [4]): 27 µM; pIC50 [2, 7]: 7.30 to 8.52
COC(=O)C[C@](O)(CCCC(C)(C)O)C(=O)O[C@@H]1C(OC)=C[C@]23CCCN2CCc2cc4c(cc2[C@H]13)OCO4 [Omacetaxine]			−27	% Max response (HepG2 cells; Table 2): −27%; IC50 (μM) in HepG2 (HepG2 cells; Table 2): Curve not complete; IC50 (μM) in HepG2 cells (HepG2 cells; Table 4): Curve not complete; pIC50 [2, 5]: 7.08
O=C1C(=O)c2ncccc2-c2cccnc21 [Phanquinone]			23	IC50 (μM) in HepG2 cells (HepG2 cells; Table 4): Inactive; pIC50 [2, 3]: 7.00
COc1ccc(C[C@H](N)C(=O)N[C@H]2[C@@H](O)[C@H](n3cnc4c(N(C)C)ncnc43)O[C@@H]2CO)cc1 [Puromycin]			−71	IC50 (HepG2 cells; [4]): 11.8 µM; pIC50 [2, 3]: 5.98
CN(C)C(=S)SSC(=S)N(C)C [Thiram]			23	IC50 (μM) in HepG2 cells (HepG2 cells; Table 4): Inactive
CC(=O)Nc1cccc(-n2c(=O)n(C3CC3)c(=O)c3c(Nc4ccc(I)cc4F)n(C)c(=O)c(C)c32)c1 [Trametinib]			14	IC50 (μM) in HepG2 cells (HepG2 cells; Table 4): Inactive
COCCn1c2c([n+](Cc3cnccn3)c1C)C(=O)c1ccccc1C2=O [YM155]			−92	IC50 (HepG2 cells; [4]): 4.69 µM; pIC50 [2, 3]: 6.43

Reference: US20160264570A1, “METHOD OF BLOCKING TRANSMISSION OF MALARIAL PARASITE” (THE UNITED STATES OF AMERICA, AS REPRESENTED BY THE …, priority 2013, published 2016)
